From publication PMC5933747 (PLoS ONE, 2018)
Read-outs that look alike come from different tables or passages of the source.

Target: human NaV1.5 (Homo sapiens, UniProt Q14524)
Assay: IonWorks Quattro (IWQ) electrophysiology, human NaV1.5
Format: cell-based
[1] = human, read-out: Glu mutant IWQ IC50 NaV1.5
[2] = human, read-out: Ala mutant IWQ IC50 NaV1.5

human NaV1.5, sequence (Q14524 whole entry): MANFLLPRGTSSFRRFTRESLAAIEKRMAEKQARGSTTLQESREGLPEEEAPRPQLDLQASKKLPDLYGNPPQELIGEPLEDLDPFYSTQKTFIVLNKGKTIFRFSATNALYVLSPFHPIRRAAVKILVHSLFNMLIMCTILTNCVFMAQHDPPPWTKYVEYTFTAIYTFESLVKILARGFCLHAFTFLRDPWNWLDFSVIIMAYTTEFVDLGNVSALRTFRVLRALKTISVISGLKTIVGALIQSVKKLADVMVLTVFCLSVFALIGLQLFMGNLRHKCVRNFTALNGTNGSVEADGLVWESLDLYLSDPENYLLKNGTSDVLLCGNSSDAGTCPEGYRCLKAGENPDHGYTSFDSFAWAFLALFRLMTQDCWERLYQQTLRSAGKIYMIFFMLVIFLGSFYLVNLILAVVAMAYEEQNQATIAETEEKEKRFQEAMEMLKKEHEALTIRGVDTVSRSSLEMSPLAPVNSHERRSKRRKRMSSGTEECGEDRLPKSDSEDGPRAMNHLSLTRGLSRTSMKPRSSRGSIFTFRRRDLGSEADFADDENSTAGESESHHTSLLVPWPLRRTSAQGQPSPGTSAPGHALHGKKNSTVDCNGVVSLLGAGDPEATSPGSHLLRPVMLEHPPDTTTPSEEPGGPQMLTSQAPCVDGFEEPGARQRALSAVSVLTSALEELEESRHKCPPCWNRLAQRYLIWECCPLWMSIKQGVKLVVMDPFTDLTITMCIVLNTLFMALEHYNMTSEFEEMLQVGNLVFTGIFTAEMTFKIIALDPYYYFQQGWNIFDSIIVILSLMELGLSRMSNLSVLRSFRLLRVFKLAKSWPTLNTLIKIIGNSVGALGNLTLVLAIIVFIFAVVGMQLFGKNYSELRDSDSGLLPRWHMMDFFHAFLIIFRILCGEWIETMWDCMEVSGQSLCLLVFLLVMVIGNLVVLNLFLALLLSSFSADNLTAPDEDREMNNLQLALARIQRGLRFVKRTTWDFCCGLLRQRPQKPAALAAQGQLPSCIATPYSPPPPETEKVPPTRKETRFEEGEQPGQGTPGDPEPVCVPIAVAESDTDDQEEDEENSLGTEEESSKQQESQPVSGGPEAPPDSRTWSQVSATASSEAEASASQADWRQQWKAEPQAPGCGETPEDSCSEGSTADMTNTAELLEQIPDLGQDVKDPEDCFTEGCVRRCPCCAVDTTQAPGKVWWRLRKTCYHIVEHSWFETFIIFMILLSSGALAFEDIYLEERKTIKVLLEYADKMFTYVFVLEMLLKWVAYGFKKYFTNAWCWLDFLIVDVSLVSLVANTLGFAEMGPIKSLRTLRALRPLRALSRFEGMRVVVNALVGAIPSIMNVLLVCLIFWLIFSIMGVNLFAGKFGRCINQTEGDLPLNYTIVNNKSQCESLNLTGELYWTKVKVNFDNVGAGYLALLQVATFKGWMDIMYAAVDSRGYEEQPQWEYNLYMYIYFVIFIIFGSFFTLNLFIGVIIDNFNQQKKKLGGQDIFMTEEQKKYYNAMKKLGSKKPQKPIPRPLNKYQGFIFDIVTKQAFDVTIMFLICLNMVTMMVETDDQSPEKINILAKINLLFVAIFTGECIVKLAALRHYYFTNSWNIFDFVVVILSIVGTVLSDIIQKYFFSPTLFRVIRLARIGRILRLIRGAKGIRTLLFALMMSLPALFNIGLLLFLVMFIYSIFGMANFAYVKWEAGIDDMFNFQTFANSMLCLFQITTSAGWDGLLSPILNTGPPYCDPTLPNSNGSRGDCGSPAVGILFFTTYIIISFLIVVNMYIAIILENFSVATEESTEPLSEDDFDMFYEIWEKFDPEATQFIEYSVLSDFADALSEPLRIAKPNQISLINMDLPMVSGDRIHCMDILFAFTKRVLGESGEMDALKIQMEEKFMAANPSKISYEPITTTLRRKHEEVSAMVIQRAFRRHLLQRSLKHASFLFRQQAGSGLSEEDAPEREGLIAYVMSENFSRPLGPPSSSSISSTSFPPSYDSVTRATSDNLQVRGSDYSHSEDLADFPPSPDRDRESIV

SMILES | IC50 [2] [µM] | also measured
CC[C@H](C)[C@H](NC(=O)[C@@H](NC(=O)[C@H](CCCCN)NC(=O)[C@H](CCCNC(=N)N)NC(=O)[C@@H]1CSSC[C@@H]2NC(=O)[C@H](C)NC(=O)[C@H](CCCNC(=N)N)NC(=O)[C@H](CCCCN)NC(=O)[C@H](CO)NC(=O)[C@H](CC(=O)O)NC(=O)[C@@H]3CSSC[C@H](NC(=O)[C@H](CCCNC(=N)N)NC(=O)[C@H](CC(C)C)NC(=O)CNC(=O)[C@H](CCC(=O)O)NC(=O)[C@H](CSSC[C@H](NC(=O)[C@@H](N)Cc4ccc(O)cc4)C(=O)N[C@@H](CCC(N)=O)C(=O)N[C@@H](CCCCN)C(=O)N[C@@H](Cc4c[nH]c5ccccc45)C(=O)N[C@@H](CCSC)C(=O)N[C@@H](Cc4c[nH]c5ccccc45)C(=O)N[C@@H]([C@@H](C)O)C(=O)N3)NC2=O)C(=O)N[C@@H](CCCCN)C(=O)N[C@@H](CCC(=O)O)C(=O)N[C@@H](Cc2c[nH]c3ccccc23)C(=O)N1)[C@@H](C)CC)C(N)=O [L23 Glu mutant] | – | IC50 [1]: > 5 µM
CC[C@H](C)[C@H](NC(=O)[C@H](CCCCN)NC(=O)[C@H](CCCNC(=N)N)NC(=O)[C@@H]1CSSC[C@@H]2NC(=O)[C@H](C)NC(=O)[C@H](CCCNC(=N)N)NC(=O)[C@H](CCCCN)NC(=O)[C@H](CO)NC(=O)[C@H](CC(=O)O)NC(=O)[C@@H]3CSSC[C@H](NC(=O)[C@H](CCCNC(=N)N)NC(=O)[C@H](CC(C)C)NC(=O)CNC(=O)[C@H](CCC(=O)O)NC(=O)[C@H](CSSC[C@H](NC(=O)[C@@H](N)Cc4ccc(O)cc4)C(=O)N[C@@H](CCC(N)=O)C(=O)N[C@@H](CCCCN)C(=O)N[C@@H](Cc4c[nH]c5ccccc45)C(=O)N[C@@H](CCSC)C(=O)N[C@@H](Cc4c[nH]c5ccccc45)C(=O)N[C@@H]([C@@H](C)O)C(=O)N3)NC2=O)C(=O)N[C@@H](CCCCN)C(=O)N[C@@H](CC(C)C)C(=O)N[C@@H](Cc2c[nH]c3ccccc23)C(=O)N1)C(=O)N[C@@H](C)C(N)=O [I29 Ala mutant] | > 5 | –
CC[C@H](C)[C@H](NC(=O)[C@@H](NC(=O)[C@H](CCCCN)NC(=O)[C@H](CCCNC(=N)N)NC(=O)[C@@H]1CSSC[C@@H]2NC(=O)[C@H](C)NC(=O)[C@H](CCCNC(=N)N)NC(=O)[C@H](CCCCN)NC(=O)[C@H](CO)NC(=O)[C@H](CC(=O)O)NC(=O)[C@@H]3CSSC[C@H](NC(=O)[C@H](CCCNC(=N)N)NC(=O)[C@H](CC(C)C)NC(=O)CNC(=O)[C@H](CCC(=O)O)NC(=O)[C@H](CSSC[C@H](NC(=O)[C@@H](N)Cc4ccc(O)cc4)C(=O)N[C@@H](CCC(N)=O)C(=O)N[C@@H](CCCCN)C(=O)N[C@@H](Cc4c[nH]c5ccccc45)C(=O)N[C@@H](CCSC)C(=O)N[C@@H](C)C(=O)N[C@@H]([C@@H](C)O)C(=O)N3)NC2=O)C(=O)N[C@@H](CCCCN)C(=O)N[C@@H](CC(C)C)C(=O)N[C@@H](Cc2c[nH]c3ccccc23)C(=O)N1)[C@@H](C)CC)C(N)=O [W7 Ala mutant] | > 5 | –
CC[C@H](C)[C@H](NC(=O)[C@@H](NC(=O)[C@H](CCCCN)NC(=O)[C@H](CCCNC(=N)N)NC(=O)[C@@H]1CSSC[C@@H]2NC(=O)[C@H](C)NC(=O)[C@H](CCCNC(=N)N)NC(=O)[C@H](CCCCN)NC(=O)[C@H](C)NC(=O)[C@H](CC(=O)O)NC(=O)[C@@H]3CSSC[C@H](NC(=O)[C@H](CCCNC(=N)N)NC(=O)[C@H](CC(C)C)NC(=O)CNC(=O)[C@H](CCC(=O)O)NC(=O)[C@H](CSSC[C@H](NC(=O)[C@@H](N)Cc4ccc(O)cc4)C(=O)N[C@@H](CCC(N)=O)C(=O)N[C@@H](CCCCN)C(=O)N[C@@H](Cc4c[nH]c5ccccc45)C(=O)N[C@@H](CCSC)C(=O)N[C@@H](Cc4c[nH]c5ccccc45)C(=O)N[C@@H]([C@@H](C)O)C(=O)N3)NC2=O)C(=O)N[C@@H](CCCCN)C(=O)N[C@@H](CC(C)C)C(=O)N[C@@H](Cc2c[nH]c3ccccc23)C(=O)N1)[C@@H](C)CC)C(N)=O [S11 Ala mutant] | – | IC50 (IWQ platform, single-residue Ala scan of JzTx-V, read-out: Ala mutant IWQ IC50 NaV1.5): 3.56 µM
CC[C@H](C)[C@H](NC(=O)[C@@H](NC(=O)[C@H](CCCCN)NC(=O)[C@H](CCCNC(=N)N)NC(=O)[C@@H]1CSSC[C@@H]2NC(=O)[C@H](C)NC(=O)[C@H](CCCNC(=N)N)NC(=O)[C@H](CCCCN)NC(=O)[C@H](CO)NC(=O)[C@H](CC(=O)O)NC(=O)[C@@H]3CSSC[C@H](NC(=O)[C@H](CCCNC(=N)N)NC(=O)[C@H](CC(C)C)NC(=O)CNC(=O)[C@H](CCC(=O)O)NC(=O)[C@H](CSSC[C@H](NC(=O)[C@@H](N)Cc4ccc(O)cc4)C(=O)N[C@@H](CCC(N)=O)C(=O)N[C@@H](CCCCN)C(=O)N[C@@H](Cc4c[nH]c5ccccc45)C(=O)N[C@@H](CCSC)C(=O)N[C@@H](CCC(=O)O)C(=O)N[C@@H]([C@@H](C)O)C(=O)N3)NC2=O)C(=O)N[C@@H](CCCCN)C(=O)N[C@@H](CC(C)C)C(=O)N[C@@H](Cc2c[nH]c3ccccc23)C(=O)N1)[C@@H](C)CC)C(N)=O [W7 Glu mutant] | – | IC50 [1]: > 5 µM
CC[C@H](C)[C@H](NC(=O)[C@H](C)NC(=O)[C@H](CCCCN)NC(=O)[C@H](CCCNC(=N)N)NC(=O)[C@@H]1CSSC[C@@H]2NC(=O)[C@H](C)NC(=O)[C@H](CCCNC(=N)N)NC(=O)[C@H](CCCCN)NC(=O)[C@H](CO)NC(=O)[C@H](CC(=O)O)NC(=O)[C@@H]3CSSC[C@H](NC(=O)[C@H](CCCNC(=N)N)NC(=O)[C@H](CC(C)C)NC(=O)CNC(=O)[C@H](CCC(=O)O)NC(=O)[C@H](CSSC[C@H](NC(=O)[C@@H](N)Cc4ccc(O)cc4)C(=O)N[C@@H](CCC(N)=O)C(=O)N[C@@H](CCCCN)C(=O)N[C@@H](Cc4c[nH]c5ccccc45)C(=O)N[C@@H](CCSC)C(=O)N[C@@H](Cc4c[nH]c5ccccc45)C(=O)N[C@@H]([C@@H](C)O)C(=O)N3)NC2=O)C(=O)N[C@@H](CCCCN)C(=O)N[C@@H](CC(C)C)C(=O)N[C@@H](Cc2c[nH]c3ccccc23)C(=O)N1)C(N)=O [I28 Ala mutant] | > 5 | –
CC[C@H](C)[C@H](NC(=O)[C@@H](NC(=O)[C@H](CCCCN)NC(=O)[C@H](CCCNC(=N)N)NC(=O)[C@@H]1CSSC[C@@H]2NC(=O)[C@H](C)NC(=O)[C@H](CCCNC(=N)N)NC(=O)[C@H](C)NC(=O)[C@H](CO)NC(=O)[C@H](CC(=O)O)NC(=O)[C@@H]3CSSC[C@H](NC(=O)[C@H](CCCNC(=N)N)NC(=O)[C@H](CC(C)C)NC(=O)CNC(=O)[C@H](CCC(=O)O)NC(=O)[C@H](CSSC[C@H](NC(=O)[C@@H](N)Cc4ccc(O)cc4)C(=O)N[C@@H](CCC(N)=O)C(=O)N[C@@H](CCCCN)C(=O)N[C@@H](Cc4c[nH]c5ccccc45)C(=O)N[C@@H](CCSC)C(=O)N[C@@H](Cc4c[nH]c5ccccc45)C(=O)N[C@@H]([C@@H](C)O)C(=O)N3)NC2=O)C(=O)N[C@@H](CCCCN)C(=O)N[C@@H](CC(C)C)C(=O)N[C@@H](Cc2c[nH]c3ccccc23)C(=O)N1)[C@@H](C)CC)C(N)=O [K12 Ala mutant] | > 5 | –
CC[C@H](C)[C@H](NC(=O)[C@@H](NC(=O)[C@H](CCCCN)NC(=O)[C@H](CCCNC(=N)N)NC(=O)[C@@H]1CSSC[C@@H]2NC(=O)[C@H](C)NC(=O)[C@H](CCCNC(=N)N)NC(=O)[C@H](CCCCN)NC(=O)[C@H](CO)NC(=O)[C@H](CC(=O)O)NC(=O)[C@@H]3CSSC[C@H](NC(=O)[C@H](CCCNC(=N)N)NC(=O)[C@H](CC(C)C)NC(=O)CNC(=O)[C@H](CCC(=O)O)NC(=O)[C@H](CSSC[C@H](NC(=O)[C@@H](N)Cc4ccc(O)cc4)C(=O)N[C@@H](CCC(N)=O)C(=O)N[C@@H](CCCCN)C(=O)N[C@@H](Cc4c[nH]c5ccccc45)C(=O)N[C@@H](CCSC)C(=O)N[C@@H](Cc4c[nH]c5ccccc45)C(=O)N[C@@H]([C@@H](C)O)C(=O)N3)NC2=O)C(=O)N[C@@H](CCCCN)C(=O)N[C@@H](C)C(=O)N[C@@H](Cc2c[nH]c3ccccc23)C(=O)N1)[C@@H](C)CC)C(N)=O [L23 Ala mutant] | > 5 | –
